Values after ≈ are worked out from the molar mass of the structure shown.
Assays:
[1] = test system: HCMV recombinant mutant virus (RV145); assay: microbe, parasite or virus in culture; assay type: cell-based, human cytomegalovirus; settings: for IC50: Human betaherpesvirus 5, read-out: IC50 ug/ml HCMV, HCMV
How it was run: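 Read-out is beta-glucuronidase activity in cell lysates 96 h after infection, measured colorimetrically or fluorometrically. Reporter virus RV145 expresses the enzyme under a viral promoter in human foreskin fibroblasts treated with inhibitor.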

HSV-1 = assay: HSV Antiviral (ELISA) Assay in Vero cells; assay type: cell-based, herpes simplex virus type 1; settings: HSV-1, Vero cells; for IC50: Human alphaherpesvirus 1, read-out: IC50 (ug/ml) HSV
How it was run: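 Viral replication was quantified by cell-fixed ELISA for HSV glycoprotein D, using a β-galactosidase reporter and fluorogenic umbelliferyl substrate, about 24 h after HSV-1 infection (MOI 0.006) of Vero cells. Compounds, at several concentrations, were added 30 min pre-infection. IC50 was derived from fluorescence relative to the compound-free signal.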

VZV strain Ellen = assay: VZV Antiviral (ELISA) Assay in human foreskin fibroblast cells; assay type: cell-based, varicella-zoster virus; settings: for IC50: Human alphaherpesvirus 3, Fibroblast, read-out: IC50 (ug/ml) VZV
How it was run: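 First, fibroblasts are infected at multiplicity below 0.1 and kept overnight. The harvested cell mixture then goes onto compound-containing wells for three days at 37° C. Finally, cells are fixed and viral gpII is measured by fluorogenic ELISA.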

Row | Molecule | IC50 [1] [µg/mL] | IC50 (HSV-1) [µg/mL] | IC50 (VZV strain Ellen) [µg/mL] | IC50 ug/ml HCMV [1] [µg/mL] | IC50 (ug/ml) HSV (HSV-1) [µg/mL] | IC50 (ug/ml) VZV (VZV strain Ellen) [µg/mL] | % inhibition 10 ug/ml VZV (VZV strain Ellen) [%]
1 | COCCOc1ccc(NC(=S)Nc2ccc(NC(=O)c3ccccc3F)cc2)cc1Cl [Example 996, N-(4-{3-[3-Chloro-4-(2-methoxy-ethoxy)-phenyl]-thioureido}-phenyl)-2-fluoro-benzamide] | > 10 | > 10 | 10 (≈ 21.1 µM) | – | – | – | –
2 | Cc1ccc(NC(=S)Nc2ccc(NC(=O)c3ccccc3F)cc2)cc1F [Example 997, 2-Fluoro-N-{4-[3-(3-fluoro-4-methyl-phenyl)-thioureido]-phenyl}-benzylamide] | – | – | – | 4 (≈ 10.1 µM) | 1.9 (≈ 4.78 µM) | >10 | –
3 | COc1ccc(NC(=S)Nc2ccc(NC(=O)c3ccccc3F)cc2)cc1C(F)(F)F [Example 998, 2-Fluoro-N-{4-[3-(4-methoxy-3-trifluoromethyl-phenyl)-thioureido]-phenyl}-benzamide] | > 10 | 3 (≈ 6.47 µM) | 5 (≈ 10.8 µM) | – | – | – | –
4 | O=C(Nc1ccc(NC(=S)Nc2ccc(Cl)cc2O)cc1)c1ccccc1F [Example 1001, N-{4-[3-(4-Chloro-2-hydroxy-phenyl)-thioureido]-phenyl}-2-fluoro-benzamide] | 2.6 (≈ 6.25 µM) | 4.3 (≈ 10.3 µM) | 3.6 (≈ 8.66 µM) | – | – | – | –
5 | CC(NC(=S)Nc1ccc(NC(=O)c2ccccc2F)cc1)c1cc2ccccc2o1 (centres unmarked) [Example 1002, N-{4-[3-(1-Benzofuran-2-yl-ethyl)-thioureid]-phenyl}-2-fluoro-benzamide] | – | – | – | 2.1 (≈ 4.84 µM) | >10 | 0.08 (≈ 0.185 µM) | –
6 | Cc1ccc(NC(=S)Nc2ccc(NC(=O)c3ccccc3F)cc2)cc1C(F)(F)F [Example 1003, 2-Fluoro-N-{4-[3-(4-methyl-3-trifluoromethyl-phenyl)-thioureido]-phenyl}-benzamide] | > 10 | > 10 | > 10 | – | – | – | –
7 | CC(NC(=S)Nc1ccc(NC(=O)c2ccccc2F)cc1)c1ccc(S(=O)(=O)N2CCCCC2)cc1 (centres unmarked) [Example 1009] | – | – | – | >10 | >10 | >10 | –
8 | O=C(Nc1ccc(NC(=S)Nc2ccc(OCC(F)(F)F)cc2OCC(F)(F)F)cc1)c1ccccc1F [Example 1010, N-(4-{3-[2,4-Bis-(2,2,2-trifluoro-ethoxy)-phenyl]-thioureido}-phenyl)-2-fluoro-benzamide] | > 10 | > 10 | > 10 | – | – | – | –
9 | COc1ccccc1C(=O)Nc1ccc(NC(=S)NC(C)c2ccc(C#N)cc2)cc1 (centres unmarked) [Example 1017, N-(4-{3-[1-(4-Cyano-phenyl)-ethyl]-thioureido}-phenyl)-2-methoxy-benzamide] | > 10 | > 10 | 0.3 (≈ 0.697 µM) | – | – | – | –
10 | COc1ccccc1C(=O)Nc1ccc(NC(=S)NC(C)c2cc3ccccc3o2)cc1 (centres unmarked) [Example 1018, N-{4-[3-(1-Benzofuran-2-yl-ethyl)-thioureido]-phenyl}-2-methoxy-benzamide] | > 10 | > 10 | 0.09 (≈ 0.202 µM) | – | – | – | –
11 | COc1ccccc1C(=O)Nc1ccc(NC(=S)NC(C)c2ccc(Br)cc2)cc1 (centres unmarked) [Example 1019, N-(4-{3-[1-(4-Bromo-phenyl)-ethyl]-thioureido}-phenyl)-2-methoxy-benzamide] | 2.6 (≈ 5.37 µM) | > 10 | 0.05 (≈ 0.103 µM) | – | – | – | –
12 | CC(NC(=S)Nc1ccc(NC(=O)c2ccc(C(F)(F)F)cc2)cc1)c1ccc(F)cc1 (centres unmarked) [Example 1021, N-(4-{3-[1-(4-Fluorophenyl)-ethyl]-thioureido}-phenyl)-4-trifluoromethyl-benzamide] | > 10 | > 10 | 0.4 (≈ 0.867 µM) | – | – | – | –
13 | N-{4-[3-(3-Butylsulfonyl-phenyl)-thioureido]-phenyl}-2-fluoro-benzamide [Example 966] | – | – | – | 2.5 | 7 | 8 | 95
14 | N-{4-[3-(3-Chloro-4-methoxy-phenyl)-thioureido]-phenyl}-4-methoxy-benzamide [Example 821] | – | – | – | 1 | 0.15 | >10 | 55

— patent US6462055B2, “Alpha-methylbenzyl-containing thiourea inhibitors of herpes viruses containing a phenylenediamine group” (Wyeth, priority 1998, dated 2002)
